Experimental data reported in EP2518139A1, “Use of indirubin derivatives for producing pluripotent stem cells” (Universitätsklinikum Jena, priority 2011, dated 2012).

Tests used:
[1] = system: Smad1/5/8; assay: Immunoblot of p- and pan-Smad1/5/8 in HFF; assay type: cell-based, human; settings: BMP2 (100ng/mL), 24h
Method: (§1) Cell culture: HeLa and C2C12 were cultured in DMEM containing 10% FCS and 1 % PS. HFF was cultured in DMEM containing 15% FCS and 1 %PS. NIH 3T3 was cultured in DMEM containing 10% NCS and 1% PS. The cells were maintained unter 5% CO2 at 37°C in a humidified atmosphere. After 24h preincuabtion in serum-free medium, the cells were treated with various compounds and proteins as indicated in context. Transfection of siRNA oligonuleotide against Smurf1 was reported by Zhu et al (Zhu et al., nature 2006) and synthesized by riboxx and performed using riboxx®FECT reagent according to the manufacturer's instructions. 24h after transfection, the cells were treated with BMP (100ng/mL) and Compound as indicated before lysis.
(§2) Western blot:: Cell extracts were homogenized in Urea-Lysis buffer (1mM EDTA,0.5% Triton X-100), 5mM NaF, 6M Urea, 1mM Na3VO4, 10µg/mL Pepstatin, 100µM PMSF and 3µg/mL Aprotinin in PBS). Enhanced chemiluminescence (ECL) Western blot analysis was performed. 20-40µg of total protein was resolved on 10% SDS-PAGE gels and immunoblotted with specific antibodies. Primary antibodies were incubated at a 1:1,000 dilution in TBS (pH 7.5) with 0.1% Tween-20 and 5% BSA/nonfat milk with gentle agitation overnight at 4°C. The proper secondary antibodies were incubated in TBS (pH 7.5) with 5% BSA/nonfat milk and 0.1 % Tween-20 at a 1:5,000 dilution for 1 h at room temperature. […]

[2] = system: BMP/TGFß downstream genes (ID1, ID2, CTGF, SnoN); assay: qRT-PCR of BMP/TGFß downstream genes in HeLa cells; assay type: cell-based, human; settings: E738 (1µM)
Method: (§3) RT-PCR: Total RNA was isolated with RNA isolation kit from Qiagen according to the manufacturer's instructions. cDNA was generated by reverse-transcription of equivalent quantities of RNA and Quantitative real-time PCR (QRT-PCR) was performed as described previously.
To evaluate the effect of indirubin on transcriptional activity, we focused on the BMP/Smad pathway and performed RT-PCR to measure the BMP/TGFß downstream genes expression regulated by E738 (Fig. 2E). […] As for ID2 only 50% was remained to be expressed. CTGF, a BMP antagonist and TGFß agonist (Abreu 2002 nature cell biology 4 599-607) and SnoN, a TGFß downstream gene were declined up to approximate 30% and 10% respectively.

[3] = system: Smad1, Smad2, Smad4, Smurf1 and Smurf2; assay: qRT-PCR of Smad and Smurf expression in HeLa cells; assay type: cell-based, human; settings: BMP2 plus E738, 24h
Method: as §3
We considered the possibility of E738 to block Smads RNA synthesis. […] The expressions of Smad-relative E3 ligases, Smurf1 and Smurf2, were inhibited more effectively and only 50% Smurf1 and 30% Smurf2 was remained to expressed. The results provided the regulation of indirubin in RNA level of R-Smads. […] We thus concluded occurrence of degradation direct in protein level rather than in RNA level.

[4] = biological target: T1, b-Raf (Homo sapiens, UniProt P15056); assay: Kinase profiling assay (ProQinase); assay type: biochemical; settings: 1µM E738, 1µM ATP, recombinant protein kinase
T1 construct: purchased ProQinase
Method: (§4) Kinase Assay: The Kinase profiling assay was performed by ProQinase as previously described (Cheng et al.201 0).
(§5) Because E738 initially was designed as a protein kinase inhibitor, we asked if E738 induced dephoshorylation and degradation are caused by certain protein kinases. Thus we exploited protein kinase profiling containing several Smad-relative protein kinases like CDKs and GSK3ß to overview the inhibitory effect of E738 in vitro. The residual activities of kinases were measured by using recombinant protein kinases and proper substrates after treatment with 1µM E738 in the presence of 1µM ATP as our previously described. […] However the mechanism was still remained to elucidate. Recently, researchers argued that Raf kinase inhibitor may induce the activation of MAPKs in vitro and in vivo leading to the failure of cancer therapy (Hatzivassiliou nature 2010 464 431-436, Heidol cell 2010 140 209-221, Murphy PNAS 2010 107 9 4299-4304). We assumed that the indirubin activated MAPKs might be due to its inhibition against Raf kinase. Furthermore, the Lin et. al. described Stat3 inhibitor could disrupt TGFß signaling (Lin oncogene 200928 961-972). Therefore we included Raf and Stat3-relative protein kinases, like Jak, Kit and Src, in this small screening.

[5] = biological target: T2, KIT (Homo sapiens, UniProt P10721); assay: Kinase profiling assay (ProQinase); assay type: biochemical; settings: 1µM E738, 1µM ATP, recombinant protein kinase
T2 construct: purchased ProQinase
Method: as §4, §5

[6] = biological target: T3, JAK2 (Homo sapiens, UniProt O60674); assay: Kinase profiling assay (ProQinase); assay type: biochemical; settings: 1µM E738, 1µM ATP, recombinant protein kinase
T3 construct: purchased ProQinase
Method: as §4, §5

[7] = system: Smad1/5/8; assay: Immunoblot of p- and pan-Smad1/5/8 in C2C12; assay type: cell-based, mouse; settings: C2C12, BMP2 (100ng/mL), 24h, E738 0,5µM, 1µM and 5µM
Method: as §1, §2

[8] = system: Sox2; assay: Immunoblot of Sox2 expression in HFF cells; assay type: cell-based, human; settings: 2h

T3 sequence (O60674 whole entry): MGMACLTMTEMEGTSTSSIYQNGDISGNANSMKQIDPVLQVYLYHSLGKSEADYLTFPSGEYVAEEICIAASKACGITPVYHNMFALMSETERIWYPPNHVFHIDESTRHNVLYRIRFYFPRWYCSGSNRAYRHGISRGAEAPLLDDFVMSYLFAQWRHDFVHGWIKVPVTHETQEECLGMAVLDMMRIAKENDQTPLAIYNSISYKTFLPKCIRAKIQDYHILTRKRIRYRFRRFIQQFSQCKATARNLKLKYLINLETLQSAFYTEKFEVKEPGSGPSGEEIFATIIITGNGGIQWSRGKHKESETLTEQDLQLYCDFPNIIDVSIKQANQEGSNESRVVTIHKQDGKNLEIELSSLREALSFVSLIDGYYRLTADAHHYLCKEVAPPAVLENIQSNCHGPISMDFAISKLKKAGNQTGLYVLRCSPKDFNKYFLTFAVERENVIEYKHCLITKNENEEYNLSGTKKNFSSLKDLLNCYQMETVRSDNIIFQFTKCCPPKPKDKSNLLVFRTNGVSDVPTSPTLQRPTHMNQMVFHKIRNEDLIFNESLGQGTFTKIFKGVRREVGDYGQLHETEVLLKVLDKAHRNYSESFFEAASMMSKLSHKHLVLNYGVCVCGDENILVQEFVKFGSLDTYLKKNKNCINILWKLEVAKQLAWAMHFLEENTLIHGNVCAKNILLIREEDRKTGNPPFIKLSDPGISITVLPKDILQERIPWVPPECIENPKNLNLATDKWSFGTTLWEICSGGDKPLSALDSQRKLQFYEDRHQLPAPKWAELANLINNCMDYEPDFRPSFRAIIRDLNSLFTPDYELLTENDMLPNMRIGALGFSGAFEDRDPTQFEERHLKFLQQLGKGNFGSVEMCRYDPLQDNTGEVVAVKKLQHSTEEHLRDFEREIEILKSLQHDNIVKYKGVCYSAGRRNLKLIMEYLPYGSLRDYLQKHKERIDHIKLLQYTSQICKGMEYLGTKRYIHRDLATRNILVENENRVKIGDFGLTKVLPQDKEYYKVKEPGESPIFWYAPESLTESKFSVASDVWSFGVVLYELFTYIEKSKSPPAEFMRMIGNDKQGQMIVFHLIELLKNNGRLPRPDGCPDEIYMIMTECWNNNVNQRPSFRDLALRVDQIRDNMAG
T2 sequence (P10721 26-976): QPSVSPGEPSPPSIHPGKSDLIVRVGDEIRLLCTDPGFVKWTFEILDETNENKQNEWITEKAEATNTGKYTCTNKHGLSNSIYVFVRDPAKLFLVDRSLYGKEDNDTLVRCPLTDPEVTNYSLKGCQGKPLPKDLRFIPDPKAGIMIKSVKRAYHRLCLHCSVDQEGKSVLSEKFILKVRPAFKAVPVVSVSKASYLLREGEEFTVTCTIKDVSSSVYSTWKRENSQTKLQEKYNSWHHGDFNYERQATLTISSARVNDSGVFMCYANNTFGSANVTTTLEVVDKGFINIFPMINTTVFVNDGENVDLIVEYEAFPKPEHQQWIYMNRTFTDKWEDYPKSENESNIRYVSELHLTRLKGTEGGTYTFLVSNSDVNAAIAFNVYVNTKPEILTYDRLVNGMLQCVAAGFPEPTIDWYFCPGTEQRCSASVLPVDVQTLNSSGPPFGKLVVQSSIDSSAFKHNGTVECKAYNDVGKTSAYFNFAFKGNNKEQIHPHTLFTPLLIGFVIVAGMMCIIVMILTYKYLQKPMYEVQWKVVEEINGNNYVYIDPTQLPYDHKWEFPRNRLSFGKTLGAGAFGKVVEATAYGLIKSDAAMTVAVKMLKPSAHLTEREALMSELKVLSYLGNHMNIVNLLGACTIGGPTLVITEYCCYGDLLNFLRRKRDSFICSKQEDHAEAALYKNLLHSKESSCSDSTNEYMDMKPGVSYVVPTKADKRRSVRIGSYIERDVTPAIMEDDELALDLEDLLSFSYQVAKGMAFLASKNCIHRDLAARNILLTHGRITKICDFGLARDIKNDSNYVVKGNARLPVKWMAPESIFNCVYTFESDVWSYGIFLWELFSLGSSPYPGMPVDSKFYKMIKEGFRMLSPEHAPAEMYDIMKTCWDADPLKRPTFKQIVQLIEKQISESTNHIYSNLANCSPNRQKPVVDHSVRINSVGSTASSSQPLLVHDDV
T1 sequence (P15056 whole entry): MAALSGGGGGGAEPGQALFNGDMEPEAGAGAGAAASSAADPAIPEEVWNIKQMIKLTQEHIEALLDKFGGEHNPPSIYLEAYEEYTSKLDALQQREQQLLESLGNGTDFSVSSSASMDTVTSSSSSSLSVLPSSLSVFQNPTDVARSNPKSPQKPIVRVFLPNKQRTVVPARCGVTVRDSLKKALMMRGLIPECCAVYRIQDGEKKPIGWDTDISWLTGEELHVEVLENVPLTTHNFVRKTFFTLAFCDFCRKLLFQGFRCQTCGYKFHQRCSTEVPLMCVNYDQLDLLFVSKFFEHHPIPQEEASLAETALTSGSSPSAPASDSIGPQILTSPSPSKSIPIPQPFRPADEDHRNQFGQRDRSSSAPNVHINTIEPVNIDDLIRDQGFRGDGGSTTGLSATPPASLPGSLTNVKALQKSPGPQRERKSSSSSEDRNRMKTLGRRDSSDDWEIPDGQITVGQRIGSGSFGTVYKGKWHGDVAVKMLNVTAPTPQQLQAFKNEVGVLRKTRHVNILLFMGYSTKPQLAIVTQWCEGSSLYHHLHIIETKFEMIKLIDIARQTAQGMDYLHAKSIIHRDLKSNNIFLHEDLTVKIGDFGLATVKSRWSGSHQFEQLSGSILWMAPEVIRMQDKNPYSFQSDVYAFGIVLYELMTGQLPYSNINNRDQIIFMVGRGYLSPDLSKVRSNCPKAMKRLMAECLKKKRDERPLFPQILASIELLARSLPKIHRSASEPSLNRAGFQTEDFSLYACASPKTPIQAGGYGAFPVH

COc1ccc2c(c1)C(=C1Nc3ccccc3C1=NOCC(O)CO)C(=O)N2 (stereo not drawn) [E738]
concentration sufficient to reduce Smad1/5/8 [1]: 0.5 µM | p- and pan-Smad1/5/8 ([1]; E738 0,5µM, 1µM and 5µM): decline of both | ID2 expression ([2]; BMP2 (100ng/mL), 1 h after incubation): firstly silenced | ID2 expression ([2]; BMP2 (100ng/mL), 6h treatment): doubled again | ID1 expression ([2]; BMP2 (100ng/mL), time course): constantly reduced | CTGF expression, declined up to ([2]; BMP, 24h): ~30% | ID2 remained to be expressed ([2]; BMP, 24h): 50% | SnoN expression, declined up to ([2]; BMP, 24h): ~10% | expression of ID1 ([2]; BMP, 24h): significantly repressed | Smad1 expression, repressed up to [3]: up to 60% | Smad2 expression, repressed up to [3]: ≤ 30% | Smurf1 remained to expressed [3]: 50% | Smurf2 remained to expressed [3]: 30% | blocked activity of b-Raf [4]: 57% | inhibition of KIT [5]: generally inhibited | inhibition of JAK2 [6]: generally inhibited | p- and pan-Smad1/5/8 [7]: decline of both | expression of Sox2 [8]: stimulates expression of Sox2
